Measurements taken from patent publication US20210317140A1, “Heterocyclic Compounds and Methods of Use” (MEDIVATION TECHNOLOGIES, INC, priority 2013, published 2021).

What was measured:
PI3Kα = target: T1, PI3Kα (Homo sapiens, UniProt P42336); experiment: PI3Kα isoform profiling (PI3Kδ protocol); type: biochemical; details: 10 dose IC50
T1 construct: purchased Reaction Biology Corporation
Excerpt: (§1) PI3Kδ assay: The PIP3 product is detected by displacement of biotin-PIP3 from an energy transfer complex consisting of Europium labeled anti-GST monoclonal antibody, a GST-tagged pleckstrin homology (PH) domain, biotinylated PIP3 and Streptavidin-Allophycocyanin (APC). Excitation of Europium in the complex results in an energy transfer to the APC and a fluorescent emission at 665 nm. The PIP3 product formed by PI 3-Kinase(h) activity displaces biotin-PIP3 from the complex resulting in a loss of energy transfer and thus a decrease in signal. This is a 3-step reaction: First, the kinase reaction with PIP2 substrate is carried out in the presence of ATP (10 μM), and the reaction is quenched with stop Solution, and then finally detect by adding Detection Mixture followed by incubation (10 min). Reaction procedure: 1) Prepare substrate in freshly prepared Reaction Buffer. 2) Deliver kinase into the substrate solution and gently mix. 3) Deliver compounds in 100% DMSO (1 μM) into the kinase reaction mixture by Acoustic technology (Echo550; nanoliter range), incubate for 10 min at RT. 4) Deliver ATP into the reaction mixture to initiate the reaction. 5) Incubate for 30 min at 30° C. 6) Quench the reaction with Stop Solution. 7) Add Detection Mixture, and incubate for overnight. 8) Measure HTRF: Ex=320 nm, ratio of Em=615 nm and Em=665 nm. The emission ratio is converted into μM PIP3 production based on PIP3 standard curves. The nonlinear regression to obtain the standard curve and IC50 values are performed using Graphpad Prism software. Assay Buffer: HEPES 50 mM (pH7.0), NaN3 0.02%, BSA 0.01%, Orthovanadate 0.1 mM, 1% DMSO. Detection buffer: HEPES 10 mM (pH7.0), BSA 0.02%, KF 0.16 M, EDTA 4 mM. Substrate: 10 μM PIP2 substrate (PI(4,5)P2).
(§2) Compounds of the invention were profiled in a 10 dose IC50 panel against PI3Kα, PI3Kβ, and PI3Kγ kinases, provided by Reaction Biology Corporation, applied to the PI3Kδ protocol provided in Example B1.

PI3Kβ = target: T2, PI3Kβ (Homo sapiens, UniProt P42338); experiment: PI3Kβ isoform profiling (PI3Kδ protocol); type: biochemical; details: for IC50: 10 dose IC50; for PI3Kβ @ 0.3 μM (% Inh): 0.3 μM compound
T2 construct: purchased Reaction Biology Corporation
Excerpt: as §1, §2

ITK = target: T3, ITK (Homo sapiens, UniProt Q08881); experiment: ITK kinase profiling (BTK protocol); type: biochemical; details: for IC50: 10 dose IC50; for ITK @ 0.3 μM (% Inh): 0.3 μM compound
T3 construct: purchased Reaction Biology Corporation
T3 sequence (Q08881 1-620): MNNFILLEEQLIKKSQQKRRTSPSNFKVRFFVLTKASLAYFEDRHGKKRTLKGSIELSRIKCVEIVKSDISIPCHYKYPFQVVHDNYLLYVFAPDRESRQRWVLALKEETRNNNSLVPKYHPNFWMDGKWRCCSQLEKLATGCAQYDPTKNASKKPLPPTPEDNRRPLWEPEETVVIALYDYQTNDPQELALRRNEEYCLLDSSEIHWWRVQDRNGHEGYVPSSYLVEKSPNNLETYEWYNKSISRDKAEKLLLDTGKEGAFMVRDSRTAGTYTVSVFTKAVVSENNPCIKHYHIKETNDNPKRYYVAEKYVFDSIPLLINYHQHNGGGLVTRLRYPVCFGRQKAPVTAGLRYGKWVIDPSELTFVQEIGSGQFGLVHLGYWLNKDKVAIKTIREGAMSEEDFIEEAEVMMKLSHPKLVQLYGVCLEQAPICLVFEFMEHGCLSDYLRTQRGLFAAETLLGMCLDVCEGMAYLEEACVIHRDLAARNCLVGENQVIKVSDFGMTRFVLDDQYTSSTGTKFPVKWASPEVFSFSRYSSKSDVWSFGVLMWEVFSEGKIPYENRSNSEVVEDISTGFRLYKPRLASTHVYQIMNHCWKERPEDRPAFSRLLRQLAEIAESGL
Method: BTK assay: In vitro profiling protein kinases was performed using the “HotSpot” assay platform. Briefly, specific kinase/substrate pairs along with required cofactors were prepared in reaction buffer. Compounds were prepared as 10 mM stock solutions in DMSO. Compounds were delivered into the reaction, followed 15-20 minutes later by addition of a mixture of ATP (Sigma, St. Louis Mo.) and ^33P ATP (Perkin Elmer, Waltham Mass.) to a final concentration of 10 μM. […] IC50 values and curve fits were obtained using Prism (GraphPad Software). Buffer Conditions: 20 mM Hepes (pH 7.5), 10 mM MgCl2, 1 mM EGTA, 0.02% Brij35, 0.02 mg/mL BSA, 0.1 mM Na3VO4, 2 mM DTT, 1% DMSO.

CD69+B220+ cells = experiment: B cell activation assay (IgD-stimulated splenocytes, CD69+B220+ cells by FACS); type: cell-based; details: IgD 3 μg/mL, 4 h; for CD69 @ 100 nM (% Inh): 100 nM compound, mouse splenocytes
In short: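 Read-out is percent CD69+ among live B220+ cells by FACS after 4 h stimulation with 3 μg/mL IgD at 37 °C. Before stimulation, splenocytes from one female mouse (10^6 cells/mL) received 100 nM compound for 30 min.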

T1 sequence (P42336 whole entry, canonical isoform): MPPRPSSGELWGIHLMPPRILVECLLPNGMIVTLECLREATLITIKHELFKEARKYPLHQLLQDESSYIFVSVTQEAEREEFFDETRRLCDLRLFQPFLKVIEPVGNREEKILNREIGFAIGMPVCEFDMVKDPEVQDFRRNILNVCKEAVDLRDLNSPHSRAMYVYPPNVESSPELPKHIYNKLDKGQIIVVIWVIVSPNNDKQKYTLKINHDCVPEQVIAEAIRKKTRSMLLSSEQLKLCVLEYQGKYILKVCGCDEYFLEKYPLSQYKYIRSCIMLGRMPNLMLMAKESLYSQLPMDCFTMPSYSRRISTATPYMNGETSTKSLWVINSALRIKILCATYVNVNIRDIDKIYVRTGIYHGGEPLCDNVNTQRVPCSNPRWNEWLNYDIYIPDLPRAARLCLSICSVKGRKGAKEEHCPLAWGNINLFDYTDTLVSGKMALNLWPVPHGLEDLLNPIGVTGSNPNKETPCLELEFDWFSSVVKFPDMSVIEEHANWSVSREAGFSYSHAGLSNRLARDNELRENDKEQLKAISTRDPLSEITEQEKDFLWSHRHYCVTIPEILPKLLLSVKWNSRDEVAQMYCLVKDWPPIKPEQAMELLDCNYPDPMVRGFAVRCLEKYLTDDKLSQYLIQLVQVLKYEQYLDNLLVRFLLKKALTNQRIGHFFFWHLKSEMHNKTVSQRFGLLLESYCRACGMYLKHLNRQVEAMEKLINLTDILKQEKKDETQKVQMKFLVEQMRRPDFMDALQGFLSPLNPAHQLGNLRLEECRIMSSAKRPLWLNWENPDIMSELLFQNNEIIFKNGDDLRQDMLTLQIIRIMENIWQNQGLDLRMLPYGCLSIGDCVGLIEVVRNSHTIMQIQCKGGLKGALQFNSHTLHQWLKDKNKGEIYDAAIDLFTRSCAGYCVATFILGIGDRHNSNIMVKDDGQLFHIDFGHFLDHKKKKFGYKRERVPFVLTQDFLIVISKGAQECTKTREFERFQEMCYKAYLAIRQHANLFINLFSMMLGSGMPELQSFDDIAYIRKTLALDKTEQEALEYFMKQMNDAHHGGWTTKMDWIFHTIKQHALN
T1 sequence (P27986 whole entry partner, canonical isoform): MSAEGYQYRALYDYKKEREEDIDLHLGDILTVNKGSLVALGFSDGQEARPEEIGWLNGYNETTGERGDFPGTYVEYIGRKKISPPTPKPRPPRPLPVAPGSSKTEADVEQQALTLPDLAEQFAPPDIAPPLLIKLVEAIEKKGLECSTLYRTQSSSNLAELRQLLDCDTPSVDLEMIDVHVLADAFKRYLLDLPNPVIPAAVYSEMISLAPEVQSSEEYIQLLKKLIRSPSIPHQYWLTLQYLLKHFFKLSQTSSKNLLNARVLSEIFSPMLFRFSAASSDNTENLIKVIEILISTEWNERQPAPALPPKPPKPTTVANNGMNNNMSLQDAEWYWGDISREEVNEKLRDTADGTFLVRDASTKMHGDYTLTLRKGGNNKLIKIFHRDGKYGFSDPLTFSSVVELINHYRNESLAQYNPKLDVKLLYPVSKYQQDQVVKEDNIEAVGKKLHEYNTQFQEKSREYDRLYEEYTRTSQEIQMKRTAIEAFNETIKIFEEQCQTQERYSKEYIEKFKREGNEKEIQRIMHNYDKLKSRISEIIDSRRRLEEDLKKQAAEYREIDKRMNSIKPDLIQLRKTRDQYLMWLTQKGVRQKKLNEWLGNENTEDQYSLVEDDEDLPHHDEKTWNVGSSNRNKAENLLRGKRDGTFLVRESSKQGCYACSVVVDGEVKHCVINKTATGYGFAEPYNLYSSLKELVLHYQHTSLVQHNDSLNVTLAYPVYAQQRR
T2 sequence (P42338 whole entry, canonical isoform): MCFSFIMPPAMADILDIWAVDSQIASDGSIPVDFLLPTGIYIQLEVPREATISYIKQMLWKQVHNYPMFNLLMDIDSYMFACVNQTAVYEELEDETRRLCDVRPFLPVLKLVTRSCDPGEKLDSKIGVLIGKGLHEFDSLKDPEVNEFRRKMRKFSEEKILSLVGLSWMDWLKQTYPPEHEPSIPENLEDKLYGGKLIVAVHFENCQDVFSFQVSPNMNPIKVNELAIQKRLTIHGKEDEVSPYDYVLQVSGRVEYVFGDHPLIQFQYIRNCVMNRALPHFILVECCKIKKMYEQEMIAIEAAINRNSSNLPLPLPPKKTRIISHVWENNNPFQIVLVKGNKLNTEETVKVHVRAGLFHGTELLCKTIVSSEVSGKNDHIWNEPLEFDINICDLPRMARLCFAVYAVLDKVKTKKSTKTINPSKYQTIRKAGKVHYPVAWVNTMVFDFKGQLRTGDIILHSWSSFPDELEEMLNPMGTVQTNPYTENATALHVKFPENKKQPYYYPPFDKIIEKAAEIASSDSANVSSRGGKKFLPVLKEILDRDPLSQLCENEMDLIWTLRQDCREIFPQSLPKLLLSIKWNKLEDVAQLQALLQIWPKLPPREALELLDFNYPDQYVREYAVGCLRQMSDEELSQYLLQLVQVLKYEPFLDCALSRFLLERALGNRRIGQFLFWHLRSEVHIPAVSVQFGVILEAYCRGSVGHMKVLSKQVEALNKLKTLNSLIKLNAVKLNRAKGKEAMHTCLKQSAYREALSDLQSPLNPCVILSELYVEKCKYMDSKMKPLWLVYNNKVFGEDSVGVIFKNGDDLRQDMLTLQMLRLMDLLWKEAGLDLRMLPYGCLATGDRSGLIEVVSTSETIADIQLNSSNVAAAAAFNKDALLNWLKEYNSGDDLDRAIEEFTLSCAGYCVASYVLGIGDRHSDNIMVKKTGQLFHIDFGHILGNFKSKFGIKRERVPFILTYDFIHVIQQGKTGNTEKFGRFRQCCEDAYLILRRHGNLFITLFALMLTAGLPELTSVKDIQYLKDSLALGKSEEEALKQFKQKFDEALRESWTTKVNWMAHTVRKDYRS
T2 sequence (P27986 whole entry partner, canonical isoform): as the sequence (P27986 whole entry partner, canonical isoform) above

Compound | IC50 (PI3Kα) [nM] | IC50 (PI3Kβ) [nM] | IC50 (ITK) [nM] | CD69 @ 100 nM (% Inh) (CD69+B220+ cells; 0.1 µM) | PI3Kβ @ 0.3 μM (% Inh) (PI3Kβ) | ITK @ 0.3 μM (% Inh) (ITK) | CD69 @ 100 nM (% Inh) (CD69+B220+ cells) | IC50 (CD69+B220+ cells; Mus musculus, Splenocyte) [nM]
Nc1ncnc2c1c(-c1ccc(F)c(O)c1)nn2C1CCc2ccccc2C1 (single isomer, unassigned) [Compound No. 26a, 5-(4-amino-1-(1,2,3,4-tetrahydronaphthalen-2-yl)-1H-pyrazolo[3,4-d]pyrimidin-3-yl)-2-fluorophenol] | 143 | 1120 | > 100000 | 16.07 ± 15.99 (n = 5) % Inh |  |  |  | 
COc1cc(-c2nn(C3Cc4ccccc4C3)c3ncnc(N)c23)ccc1C [Compound No. 49, 1-(2,3-dihydro-1H-inden-2-yl)-3-(3-methoxy-4-methylphenyl)-1H-pyrazolo[3,4-d]pyrimidin-4-amine] | 504 |  |  |  | 19.09 | 6.31 | 16.42 ± 20.45 (n = 9) % Inh | 
Nc1ncnc2c1c(-c1cc(O)cc(F)c1)nn2C1Cc2ccccc2C1 [compound 3, 3-(4-amino-1-(2,3-dihydro-1H-inden-2-yl)-1H-pyrazolo[3,4-d]pyrimidin-3-yl)-5-fluorophenol] | 20.1 | 90.8 | 46900 |  |  |  | 77.66 ± 22.65 (n = 6) % Inh | 183 ± 172
Nc1ncnc2c1c(-c1ccc(F)c(O)c1)nn2C1CCc2ccccc2C1 (single isomer, unassigned) [Compound No. 26b, 5-(4-amino-1-(1,2,3,4-tetrahydronaphthalen-2-yl)-1H-pyrazolo[3,4-d]pyrimidin-3-yl)-2-fluorophenol] | 161 | 787 | 51600 | 11.62 ± 20.93 (n = 5) % Inh |  |  |  | 
Nc1ncnc2c1c(-c1cc(O)c(F)c(F)c1)cn2C1Cc2ccccc2C1 [Compound No. 101, 5-[4-amino-7-(2,3-dihydro-1H-inden-2-yl)-7H-pyrrolo[2,3-d]pyrimidin-5-yl]-2,3-difluorophenol] | 120 |  |  |  | 41.93 | −2.77 | −12.35 ± 33.92 (n = 5) % Inh | 
Nc1ncnc2c1c(-c1ccc(Cl)c(O)c1)cn2C1Cc2ccccc2C1 [Compound No. 93, 5-[4-amino-7-(2,3-dihydro-1H-inden-2-yl)-7H-pyrrolo[2,3-d]pyrimidin-5-yl]-2-chlorophenol] | 50.9 |  |  |  | 47.09 | 108.85 | −19.68 ± 39.78 (n = 5) % Inh | 
Nc1ncnc2c1c(-c1cc(O)c(F)c(Cl)c1)cn2C1Cc2ccccc2C1 [compound 110, 5-[4-amino-7-(2,3-dihydro-1H-inden-2-yl)-7H-pyrrolo[2,3-d]pyrimidin-5-yl]-3-chloro-2-fluorophenol] | 83.5 |  |  |  | 50.12 | −3.49 | −11.51 ± 15.89 (n = 3) % Inh | 
